Measurements as given in PMC4710522, “A Novel Triazolopyridine-Based Spleen Tyrosine Kinase Inhibitor That Arrests Joint Inflammation” (PLoS ONE, 2016).
“And” between values parts separate entries of the source, which are not always exact repeats. Identical values can stand only once.

Tests used:
Assay in all cases: SelectScreen kinase assay
Type in all cases: biochemical
IKK1_h = target: T1, IKK1_h (Homo sapiens, UniProt O15111); details: KM ATP, read-out: % control
T1 construct: purchased Life Technologies (Invitrogen) SelectScreen, Z'-LYTE / Adapta
Outline: (§1)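 ATP level varied by condition (KM for the specific enzyme, 10 µM or 100 µM), while compound stayed at 3 µM; % control calculated against uninhibited DMSO wells.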

TBK1_h = target: T2, TBK1_h (Homo sapiens, UniProt Q9UHD2); details: KM ATP, read-out: % control
T2 construct: purchased Life Technologies (Invitrogen) SelectScreen, Z'-LYTE / Adapta
Outline: as §1

Abl_Y253F_h = target: T3, Abl_Y253F_h (Homo sapiens, UniProt P00519, Y253F); details: KM ATP, read-out: % control
T3 construct: purchased Life Technologies (Invitrogen) SelectScreen, Z'-LYTE / Adapta
Outline: as §1

Gck_h = target: T4, Gck_h (Homo sapiens, UniProt Q12851); details: KM ATP, read-out: % control
T4 construct: purchased Life Technologies (Invitrogen) SelectScreen, Z'-LYTE / Adapta
Outline: as §1

MYLK2_h = target: T5, MYLK2_h (Homo sapiens, UniProt Q9H1R3); details: KM ATP, read-out: % control
T5 construct: purchased Life Technologies (Invitrogen) SelectScreen, Z'-LYTE / Adapta
Outline: as §1

CDK2_cyclinA_h = target: T6, CDK2_cyclinA_h (Homo sapiens, UniProt P24941); details: KM ATP, read-out: % control
T6 construct: purchased Life Technologies (Invitrogen) SelectScreen, Z'-LYTE / Adapta
Outline: as §1

EGFR_h = target: T7, EGFR_h (Homo sapiens, UniProt P00533); details: KM ATP, read-out: % control
T7 construct: purchased Life Technologies (Invitrogen) SelectScreen, Z'-LYTE / Adapta
Outline: as §1

Ret_Y791F_h = target: T8, Ret_Y791F_h (Homo sapiens, UniProt P07949, Y791F); details: KM ATP, read-out: % control
T8 construct: purchased Life Technologies (Invitrogen) SelectScreen, Z'-LYTE / Adapta
Outline: as §1

p70S6K_h = target: T9, p70S6K_h (Homo sapiens, UniProt P23443); details: KM ATP, read-out: % control
T9 construct: purchased Life Technologies (Invitrogen) SelectScreen, Z'-LYTE / Adapta
Outline: as §1

JAK1_h = JAK1_h (Homo sapiens, UniProt P23458)
Outline: as §1

PAK6_h = target: T10, PAK6_h (Homo sapiens, UniProt Q9NQU5); details: KM ATP, read-out: % control
T10 construct: purchased Life Technologies (Invitrogen) SelectScreen, Z'-LYTE / Adapta
Outline: as §1

mTOR_h = target: T11, mTOR_h (Homo sapiens, UniProt P42345); details: KM ATP, read-out: % control
T11 construct: purchased Life Technologies (Invitrogen) SelectScreen, Z'-LYTE / Adapta
Outline: as §1

CDK5_p25_h = target: T12, CDK5_p25_h (Homo sapiens, UniProt Q00535); details: KM ATP, read-out: % control
T12 construct: purchased Life Technologies (Invitrogen) SelectScreen, Z'-LYTE / Adapta
Outline: as §1

IGF-1R_h = target: T13, IGF-1R_h (Homo sapiens, UniProt P08069); details: KM ATP, read-out: % control
T13 construct: purchased Life Technologies (Invitrogen) SelectScreen, Z'-LYTE / Adapta
Outline: as §1

IKBKE_h = target: T14, IKBKE_h (Homo sapiens, UniProt Q14164); details: KM ATP, read-out: % control
T14 construct: purchased Life Technologies (Invitrogen) SelectScreen, Z'-LYTE / Adapta
Outline: as §1

p38-beta_h = target: T15, p38-beta_h (Homo sapiens, UniProt Q15759); details: KM ATP, read-out: % control
T15 construct: purchased Life Technologies (Invitrogen) SelectScreen, Z'-LYTE / Adapta
Outline: as §1

Met_h = target: T16, Met_h (Homo sapiens, UniProt P08581); details: KM ATP, read-out: % control
T16 construct: purchased Life Technologies (Invitrogen) SelectScreen, Z'-LYTE / Adapta
Outline: as §1

MATK_h = target: T17, MATK_h (Homo sapiens, UniProt P42679); details: KM ATP, read-out: % control
T17 construct: purchased Life Technologies (Invitrogen) SelectScreen, Z'-LYTE / Adapta
Outline: as §1

DYR1A_h = target: T18, DYR1A_h (Homo sapiens, UniProt Q13627); details: KM ATP, read-out: % control
T18 construct: purchased Life Technologies (Invitrogen) SelectScreen, Z'-LYTE / Adapta
Outline: as §1

Flt1_h = target: T19, Flt1_h (Homo sapiens, UniProt P17948); details: KM ATP, read-out: % control
T19 construct: purchased Life Technologies (Invitrogen) SelectScreen, Z'-LYTE / Adapta
Outline: as §1

BRAF V599E = target: T20, BRAF V599E (Homo sapiens, UniProt P15056, V600E); details: 100 µM ATP, read-out: % control
T20 construct: purchased Life Technologies (Invitrogen) SelectScreen, Z'-LYTE / Adapta
Outline: as §1

EphB2_h = target: T21, EphB2_h (Homo sapiens, UniProt P29323); details: KM ATP, read-out: % control
T21 construct: purchased Life Technologies (Invitrogen) SelectScreen, Z'-LYTE / Adapta
Outline: as §1

CaMKII-alpha_h = target: T22, CaMKII-alpha_h (Homo sapiens, UniProt Q9UQM7); details: KM ATP, read-out: % control
T22 construct: purchased Life Technologies (Invitrogen) SelectScreen, Z'-LYTE / Adapta
Outline: as §1

BRAF = target: T23, BRAF (Homo sapiens, UniProt P15056); details: 100 µM ATP, read-out: % control
T23 construct: purchased Life Technologies (Invitrogen) SelectScreen, Z'-LYTE / Adapta
Outline: as §1

MARK3_h = target: T24, MARK3_h (Homo sapiens, UniProt P27448); details: KM ATP, read-out: % control
T24 construct: purchased Life Technologies (Invitrogen) SelectScreen, Z'-LYTE / Adapta
Outline: as §1

PAK3_h = target: T25, PAK3_h (Homo sapiens, UniProt O75914); details: KM ATP, read-out: % control
T25 construct: purchased Life Technologies (Invitrogen) SelectScreen, Z'-LYTE / Adapta
Outline: as §1

IRAK1_h = target: T26, IRAK1_h (Homo sapiens, UniProt P51617); details: KM ATP, read-out: % control
T26 construct: purchased Life Technologies (Invitrogen) SelectScreen, Z'-LYTE / Adapta
Outline: as §1

HIPK4_h = target: T27, HIPK4_h (Homo sapiens, UniProt Q8NE63); details: KM ATP, read-out: % control
T27 construct: purchased Life Technologies (Invitrogen) SelectScreen, Z'-LYTE / Adapta
Outline: as §1

MINK_h = target: T28, MINK_h (Homo sapiens, UniProt Q8N4C8); details: KM ATP, read-out: % control
T28 construct: purchased Life Technologies (Invitrogen) SelectScreen, Z'-LYTE / Adapta
Outline: as §1

CDK7_h = target: T29, CDK7_h (Homo sapiens, UniProt P50613); details: KM ATP, read-out: % control
T29 construct: purchased Life Technologies (Invitrogen) SelectScreen, Z'-LYTE / Adapta
Outline: as §1

IKK-beta_h = target: T30, IKK-beta_h (Homo sapiens, UniProt O14920); details: KM ATP, read-out: % control
T30 construct: purchased Life Technologies (Invitrogen) SelectScreen, Z'-LYTE / Adapta
Outline: as §1

Flt3_h = Flt3_h (Homo sapiens, UniProt P36888)
PKD3_h = target: T31, PKD3_h (Homo sapiens, UniProt O94806); details: KM ATP, read-out: % control
T31 construct: purchased Life Technologies (Invitrogen) SelectScreen, Z'-LYTE / Adapta
Outline: as §1

TrkB_h = target: T32, TrkB_h (Homo sapiens, UniProt Q16620); details: KM ATP, read-out: % control
T32 construct: purchased Life Technologies (Invitrogen) SelectScreen, Z'-LYTE / Adapta
Outline: as §1

[1] = 3 µM, KM ATP, read-out: % control
[2] = 10-point dose-response, commercial vendor

Sequence of Flt3_h (P36888 27-993): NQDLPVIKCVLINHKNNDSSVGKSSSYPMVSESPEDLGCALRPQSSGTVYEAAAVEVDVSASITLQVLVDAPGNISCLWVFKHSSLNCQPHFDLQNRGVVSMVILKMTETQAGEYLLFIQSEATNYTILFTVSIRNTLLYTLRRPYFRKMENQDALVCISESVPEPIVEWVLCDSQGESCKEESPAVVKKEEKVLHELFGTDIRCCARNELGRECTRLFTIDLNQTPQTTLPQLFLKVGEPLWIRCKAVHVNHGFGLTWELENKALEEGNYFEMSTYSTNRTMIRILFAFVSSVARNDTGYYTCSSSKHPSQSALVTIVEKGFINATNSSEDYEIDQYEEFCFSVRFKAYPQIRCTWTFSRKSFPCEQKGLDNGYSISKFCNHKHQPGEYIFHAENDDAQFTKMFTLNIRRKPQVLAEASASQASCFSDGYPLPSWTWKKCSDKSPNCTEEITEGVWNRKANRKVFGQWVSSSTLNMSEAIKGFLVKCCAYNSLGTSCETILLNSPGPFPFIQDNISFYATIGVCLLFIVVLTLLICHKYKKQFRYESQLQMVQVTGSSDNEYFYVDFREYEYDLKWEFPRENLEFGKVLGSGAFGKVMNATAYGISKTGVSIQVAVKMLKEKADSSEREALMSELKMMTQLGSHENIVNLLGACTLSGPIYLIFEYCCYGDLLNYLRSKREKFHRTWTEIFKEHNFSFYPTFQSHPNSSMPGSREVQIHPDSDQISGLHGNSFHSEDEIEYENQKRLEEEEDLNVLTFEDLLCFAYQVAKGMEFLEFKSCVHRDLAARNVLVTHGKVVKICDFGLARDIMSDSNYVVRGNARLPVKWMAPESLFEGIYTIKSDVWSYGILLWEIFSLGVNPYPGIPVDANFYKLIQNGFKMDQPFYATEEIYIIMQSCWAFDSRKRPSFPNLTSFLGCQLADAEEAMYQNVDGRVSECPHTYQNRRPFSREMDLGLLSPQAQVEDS
Sequence of JAK1_h (P23458 whole entry): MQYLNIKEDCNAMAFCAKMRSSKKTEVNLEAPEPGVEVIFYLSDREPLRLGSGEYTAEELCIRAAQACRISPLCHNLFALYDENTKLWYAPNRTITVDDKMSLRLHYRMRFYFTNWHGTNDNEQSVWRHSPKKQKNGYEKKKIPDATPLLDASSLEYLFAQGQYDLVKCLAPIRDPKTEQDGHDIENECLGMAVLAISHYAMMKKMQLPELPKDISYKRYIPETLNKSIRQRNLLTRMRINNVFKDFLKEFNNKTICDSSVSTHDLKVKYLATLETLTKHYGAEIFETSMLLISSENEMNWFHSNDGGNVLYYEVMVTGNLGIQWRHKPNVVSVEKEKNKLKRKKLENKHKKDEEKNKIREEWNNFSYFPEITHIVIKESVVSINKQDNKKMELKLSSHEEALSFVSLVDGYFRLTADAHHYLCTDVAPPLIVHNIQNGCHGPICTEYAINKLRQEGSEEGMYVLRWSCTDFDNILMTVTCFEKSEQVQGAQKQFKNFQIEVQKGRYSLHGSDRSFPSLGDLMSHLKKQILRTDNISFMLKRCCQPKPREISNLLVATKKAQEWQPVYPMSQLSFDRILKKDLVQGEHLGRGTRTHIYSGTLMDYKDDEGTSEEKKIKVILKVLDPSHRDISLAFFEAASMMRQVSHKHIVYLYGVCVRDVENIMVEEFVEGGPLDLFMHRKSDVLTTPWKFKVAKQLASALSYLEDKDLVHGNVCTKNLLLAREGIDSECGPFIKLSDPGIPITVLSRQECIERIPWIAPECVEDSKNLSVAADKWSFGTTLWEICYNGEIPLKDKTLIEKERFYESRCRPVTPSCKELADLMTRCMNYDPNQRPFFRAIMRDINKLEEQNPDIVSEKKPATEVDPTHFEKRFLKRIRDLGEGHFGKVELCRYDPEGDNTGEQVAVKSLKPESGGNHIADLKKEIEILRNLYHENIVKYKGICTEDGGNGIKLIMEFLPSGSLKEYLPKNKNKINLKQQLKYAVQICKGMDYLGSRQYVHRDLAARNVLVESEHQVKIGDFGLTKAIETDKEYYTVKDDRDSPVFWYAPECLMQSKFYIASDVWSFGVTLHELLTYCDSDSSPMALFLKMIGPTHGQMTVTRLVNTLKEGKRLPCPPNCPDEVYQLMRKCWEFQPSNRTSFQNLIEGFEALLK
T4 sequence (Q12851 whole entry): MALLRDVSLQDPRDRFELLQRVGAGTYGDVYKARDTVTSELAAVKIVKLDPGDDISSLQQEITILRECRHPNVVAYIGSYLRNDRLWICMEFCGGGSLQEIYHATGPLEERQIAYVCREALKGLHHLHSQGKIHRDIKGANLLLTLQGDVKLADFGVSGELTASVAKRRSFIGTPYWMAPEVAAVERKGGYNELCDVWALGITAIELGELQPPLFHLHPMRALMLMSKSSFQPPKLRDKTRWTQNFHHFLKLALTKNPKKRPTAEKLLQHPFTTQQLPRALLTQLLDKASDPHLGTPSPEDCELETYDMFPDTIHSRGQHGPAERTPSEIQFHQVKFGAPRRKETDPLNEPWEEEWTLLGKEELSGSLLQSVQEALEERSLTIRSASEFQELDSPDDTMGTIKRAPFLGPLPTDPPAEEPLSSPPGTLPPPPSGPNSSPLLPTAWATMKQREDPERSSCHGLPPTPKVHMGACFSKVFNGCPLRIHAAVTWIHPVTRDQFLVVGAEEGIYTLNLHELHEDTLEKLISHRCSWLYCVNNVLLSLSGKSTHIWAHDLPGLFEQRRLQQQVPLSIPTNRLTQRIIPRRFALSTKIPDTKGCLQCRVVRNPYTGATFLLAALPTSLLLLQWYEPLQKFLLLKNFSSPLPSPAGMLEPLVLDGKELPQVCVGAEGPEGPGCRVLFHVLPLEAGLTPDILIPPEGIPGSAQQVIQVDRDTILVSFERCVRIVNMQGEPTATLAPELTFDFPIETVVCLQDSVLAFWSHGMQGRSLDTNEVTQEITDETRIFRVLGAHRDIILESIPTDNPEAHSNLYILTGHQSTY
T9 sequence (P23443 whole entry): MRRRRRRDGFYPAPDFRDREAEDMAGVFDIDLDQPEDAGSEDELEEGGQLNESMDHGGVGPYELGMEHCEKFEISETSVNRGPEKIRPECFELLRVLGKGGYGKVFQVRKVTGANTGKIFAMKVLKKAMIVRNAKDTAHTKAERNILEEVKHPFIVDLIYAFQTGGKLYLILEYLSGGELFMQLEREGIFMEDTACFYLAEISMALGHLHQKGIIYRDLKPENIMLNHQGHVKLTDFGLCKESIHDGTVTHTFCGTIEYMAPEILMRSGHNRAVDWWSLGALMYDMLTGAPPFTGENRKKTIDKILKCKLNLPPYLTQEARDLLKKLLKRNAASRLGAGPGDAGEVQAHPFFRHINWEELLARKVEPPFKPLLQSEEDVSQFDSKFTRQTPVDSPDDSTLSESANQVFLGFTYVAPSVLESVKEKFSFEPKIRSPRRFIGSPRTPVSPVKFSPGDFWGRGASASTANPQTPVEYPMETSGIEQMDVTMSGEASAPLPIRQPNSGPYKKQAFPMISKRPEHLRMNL
T7 sequence (P00533 25-1210): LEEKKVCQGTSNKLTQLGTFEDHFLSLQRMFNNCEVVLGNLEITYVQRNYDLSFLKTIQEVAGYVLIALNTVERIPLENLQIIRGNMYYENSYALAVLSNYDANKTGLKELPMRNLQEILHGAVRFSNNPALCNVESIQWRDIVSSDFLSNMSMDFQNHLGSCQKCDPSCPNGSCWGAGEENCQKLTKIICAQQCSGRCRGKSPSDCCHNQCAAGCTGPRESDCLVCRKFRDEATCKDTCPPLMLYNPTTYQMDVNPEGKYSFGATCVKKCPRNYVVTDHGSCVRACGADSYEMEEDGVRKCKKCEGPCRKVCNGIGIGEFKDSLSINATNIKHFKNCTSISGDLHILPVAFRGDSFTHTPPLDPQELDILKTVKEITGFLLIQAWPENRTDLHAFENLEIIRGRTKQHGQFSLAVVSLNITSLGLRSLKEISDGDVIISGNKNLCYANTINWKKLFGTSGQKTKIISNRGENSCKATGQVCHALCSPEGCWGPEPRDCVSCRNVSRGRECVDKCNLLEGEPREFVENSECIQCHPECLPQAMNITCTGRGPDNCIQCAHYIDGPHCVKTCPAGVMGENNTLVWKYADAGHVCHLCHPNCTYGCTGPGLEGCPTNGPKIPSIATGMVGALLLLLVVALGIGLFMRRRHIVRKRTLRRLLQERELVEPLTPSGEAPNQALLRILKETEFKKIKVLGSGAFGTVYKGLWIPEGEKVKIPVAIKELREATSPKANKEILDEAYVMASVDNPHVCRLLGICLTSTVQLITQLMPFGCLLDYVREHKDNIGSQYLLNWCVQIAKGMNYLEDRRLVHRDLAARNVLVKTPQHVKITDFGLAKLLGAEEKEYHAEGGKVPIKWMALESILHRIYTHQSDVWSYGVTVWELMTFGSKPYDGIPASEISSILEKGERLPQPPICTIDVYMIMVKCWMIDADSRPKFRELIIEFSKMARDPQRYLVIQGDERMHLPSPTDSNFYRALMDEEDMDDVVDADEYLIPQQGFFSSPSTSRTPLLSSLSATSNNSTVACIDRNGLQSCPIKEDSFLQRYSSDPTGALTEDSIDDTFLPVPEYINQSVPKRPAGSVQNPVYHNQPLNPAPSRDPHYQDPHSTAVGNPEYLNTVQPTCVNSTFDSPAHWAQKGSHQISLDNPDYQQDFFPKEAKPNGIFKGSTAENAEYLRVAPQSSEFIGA
T15 sequence (Q15759 whole entry): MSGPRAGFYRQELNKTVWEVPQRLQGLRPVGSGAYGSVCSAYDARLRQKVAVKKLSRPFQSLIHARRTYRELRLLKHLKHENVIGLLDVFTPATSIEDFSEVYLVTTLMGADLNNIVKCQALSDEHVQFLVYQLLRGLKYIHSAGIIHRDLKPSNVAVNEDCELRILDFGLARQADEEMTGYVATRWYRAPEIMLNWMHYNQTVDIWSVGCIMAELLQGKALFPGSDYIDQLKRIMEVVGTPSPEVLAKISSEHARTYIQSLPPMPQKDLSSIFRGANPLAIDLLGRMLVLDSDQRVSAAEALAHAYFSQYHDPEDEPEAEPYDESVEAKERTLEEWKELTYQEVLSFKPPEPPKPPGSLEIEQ

`c1cc(CC2CCOCC2)n2nc(Nc3ccc4c(NC5CCOCC5)n[nH]c4c3)nc2c1` [CC-509, [3-(2H-3,4,5,6-tetrahydropyran-4-ylamino)(1H-indazol-6-yl)][5-(2H-3,4,5,6-tetrahydropyran-4-ylmethyl)(2H-1,2,4-triazolo[1,5-a]pyridin-2-yl)]amine] gave a remaining activity at 3 µM (IKK1_h) of 106%, a remaining activity at 3 µM (TBK1_h) of 10% and a remaining activity at 3 µM (Abl_Y253F_h) of 22%. It also gave a remaining activity at 3 µM (Gck_h) of 57%, a remaining activity at 3 µM (MYLK2_h) of 80% and a remaining activity at 3 µM (CDK2_cyclinA_h) of 64%. It also gave a remaining activity at 3 µM (EGFR_h) of 97%, a remaining activity at 3 µM (Ret_Y791F_h) of 18% and a remaining activity at 3 µM (p70S6K_h) of 89%. The remaining activity at 3 µM (JAK1_h; [1]) was 0%, the IC50 (JAK1_h; [2]) was 0.04 µM and 0.044 µM and the remaining activity at 3 µM (PAK6_h) was 91%. For the same compound, the remaining activity at 3 µM (mTOR_h) was 92%, the remaining activity at 3 µM (CDK5_p25_h) was 82% and the remaining activity at 3 µM (IGF-1R_h) was 97%. It also gave a remaining activity at 3 µM (IKBKE_h) of 67%, a remaining activity at 3 µM (p38-beta_h) of 84% and a remaining activity at 3 µM (Met_h) of 66%. The remaining activity at 3 µM (MATK_h) was 102%, the remaining activity at 3 µM (DYR1A_h) was 99% and the remaining activity at 3 µM (Flt1_h) was 55%. For the same compound, the remaining activity at 3 µM (BRAF V599E) was 88%, the remaining activity at 3 µM (EphB2_h) was 75% and the remaining activity at 3 µM (CaMKII-alpha_h) was 80%. It also gave a remaining activity at 3 µM (BRAF) of 83%, a remaining activity at 3 µM (MARK3_h) of 42% and a remaining activity at 3 µM (PAK3_h) of 97%. For the same compound, the remaining activity at 3 µM (IRAK1_h) was 20%, the remaining activity at 3 µM (HIPK4_h) was 100% and the remaining activity at 3 µM (MINK_h) was 55%. It also gave a remaining activity at 3 µM (CDK7_h) of 94%, a remaining activity at 3 µM (IKK-beta_h) of 99% and a remaining activity at 3 µM (Flt3_h; [1]) of 6%. The IC50 (Flt3_h; [2]) was 0.14 µM and 0.143 µM, the remaining activity at 3 µM (PKD3_h) was 37% and the remaining activity at 3 µM (TrkB_h) was 34%.
